# According to patent publication US20250171518A1, “METHODS FOR PREPARING CELLS FOR ADOPTIVE T CELL THERAPY” (City of Hope, priority 2015, published 2025):
# Test system: CD19 CAR T cells from bulk T cells (PBMC), TCM, naïve/memory T cells
# Test: Generation of memory CD19 CAR T cells from different T cell subsets
# Format: cell-based, human
# Excerpt: FIGS. 6A-6B: Akt inhibition promotes the generation of memory CD19 CAR T cells from different T cell subsets. […] Resultant CD19 CAR T cells were stained with biotinylated Erbitux (cetuximab), followed by streptavidin-PE for CAR detection and antibodies against CD62L. Percentages of CAR+CD62L+ cells are depicted on the basis of the gating of isotype-stained cells. (B) Percentages of CD62L+CD28+ T cells after gating on CAR+CD8+ from six lines of CD19 CAR T cells derived from two different donors are presented.
# Resultant CD19CAR T cells were stained with biotinylated Erbitux (cetuximab), followed by streptavidin-PE for CAR detection and antibodies against CD62L. Cells expressing CD62 represent TCM cells or TSCM cells.
# Samples from two donors were used to prepare PBMC, TCM, and TN/TCM/TSCM cell populations.
structure (smiles),measurement,setting,value
"O=c1[nH]c2ccccc2n1C1CCN(Cc2ccc(-c3nc4cc5[nH]cnc5cc4nc3-c3ccccc3)cc2)CC1 [Akt inhibitor VIII, 1,3-dihydro-1-[1-[[4-(6-phenyl-1H-imidazo[4,5-g]quinoxalin-7-yl)phenyl]methyl]-4-piperidinyl]-2H-benzimidazol-2-one]",percentage of CD62L+ expressing CAR T cells,"1 μM Akt inhibitor VIII, 17-21 days, bulk T cells, TCM cells or naïve/memory T cells, FIG. 6A",increases the percentage of CD62L+ expressing CAR T cells
same,number of CD62L+/CD28+/CAR+ T cells,"six cell populations from two donors, 17-21 days with or without Akt inhibitor VIII, FIG. 6B",increased the number of CD62L+/CD28+/CAR+ T cells
